Measurements taken from ChEMBL document CHEMBL1201862, “PubChem BioAssay data set” (2004).
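Each compound was tested at five concentrations against cells in 96-well plates for 48 hours. GI50: concentration for 50% inhibition of growth.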 Active and inactive are the calls of the source. No stated cut-off is given here; in the data, active = GI50 up to about 1.1 µM and inactive = higher.

Columns and labels:
Assay in all cases: NCI anticancer screen, dose series, 48 h
[1] = test system: OVCAR-3
[2] = test system: SW-620
[3] = test system: OVCAR-8
[4] = test system: SK-MEL-28
[5] = test system: M14
[6] = test system: SF-539
[7] = test system: HL-60
[8] = test system: RXF 393
[9] = test system: MDA-MB-231
[10] = test system: DU-145
[11] = test system: RPMI-8226
[12] = test system: HCT-15
[13] = test system: HOP-62
[14] = test system: Malme-3M
[15] = test system: SNB-19
[16] = test system: MDA-MB-435
[17] = test system: MOLT-4
[18] = test system: HT-29
[19] = test system: COLO 205
[20] = test system: UACC-62

Structure (SMILES)	GI50 [1]	GI50 [2]	GI50 [3]	GI50 [4]	GI50 [5]	GI50 [6]	GI50 [7]	GI50 [8]	GI50 [9]	GI50 [10]	GI50 [11]	GI50 [12] [µM]	GI50 [13]	GI50 [14]	GI50 [15]	GI50 [16]	GI50 [17]	GI50 [18]	GI50 [19]	GI50 [20]
O=C1Nc2ccc(Br)cc2C1=Nc1cccnc1	18.9 µM (inactive)	17.8 µM (inactive)	25.3 µM (inactive)	19.5 µM (inactive)	15.7 µM (inactive)	16.5 µM (inactive)	11.8 µM (inactive)	15.2 µM (inactive)	18.1 µM (inactive)	33 µM (inactive)	21.4 µM (inactive)	22.1	25 µM (inactive)	22.3 µM (inactive)	41.2 µM (inactive)	13 µM (inactive)	22.5 µM (inactive)	21 µM (inactive)	67.3 µM (inactive)	17.3 µM (inactive)
O=C(CCSC(CC(=O)c1ccc(Cl)cc1)c1ccc(Cl)cc1)Nc1ccc(Cl)cc1 (centres undefined)	14.1 µM (inactive)	2.88 µM (inactive)	14.9 µM (inactive)	15.4 µM (inactive)	14.4 µM (inactive)	18.4 µM (inactive)	4.1 µM (inactive)	14.9 µM (inactive)	15.2 µM (inactive)	14 µM (inactive)	2.19 µM (inactive)	10.8	13.3 µM (inactive)	16.9 µM (inactive)	13.7 µM (inactive)	12.3 µM (inactive)	3.01 µM (inactive)	9.23 µM (inactive)	18.6 µM (inactive)	10.2 µM (inactive)
Oc1ccc(-c2cc(-c3cc(-c4ccc(O)cc4)no3)on2)cc1	> 100 µM (inactive)	> 30.3 µM (inactive)	> 100 µM (inactive)	> 100 µM (inactive)	> 32.4 µM (inactive)	4.13 µM (inactive)	3.36 µM (inactive)	> 100 µM (inactive)	> 24.4 µM (inactive)	5.09 µM (inactive)	3.52 µM (inactive)	1.98	> 50.9 µM (inactive)	46.1 µM (inactive)	> 100 µM (inactive)	> 100 µM (inactive)	1.35 µM (inactive)	> 100 µM (inactive)	> 100 µM (inactive)	1.16 µM (inactive)
CN(C)c1ccc(/N=N\c2cccc3ncccc23)cc1	22.9 µM (inactive)	62.2 µM (inactive)	> 100 µM (inactive)	> 100 µM (inactive)	61.7 µM (inactive)	> 100 µM (inactive)	12.8 µM (inactive)	> 100 µM (inactive)	41.1 µM (inactive)	75.7 µM (inactive)	18.1 µM (inactive)	51.9	93.5 µM (inactive)	> 90.8 µM (inactive)	> 58.1 µM (inactive)	29.4 µM (inactive)	26.2 µM (inactive)	39 µM (inactive)	64 µM (inactive)	97.5 µM (inactive)
CC1=NN(C(=O)CC(=O)Nc2cccc(Cl)c2)C(=O)C1/N=N/c1ccc(C(=O)O)cc1 (centres undefined)	> 100 µM (inactive)	> 100 µM (inactive)	> 100 µM (inactive)	> 100 µM (inactive)	> 100 µM (inactive)	> 100 µM (inactive)	> 100 µM (inactive)	> 100 µM (inactive)	> 100 µM (inactive)	> 100 µM (inactive)	> 100 µM (inactive)	> 100	> 100 µM (inactive)	> 100 µM (inactive)	> 100 µM (inactive)	> 100 µM (inactive)	78.5 µM (inactive)	> 100 µM (inactive)	> 100 µM (inactive)	> 100 µM (inactive)
COC1(OC)c2occc2C(=N)c2ccc(=O)oc21	77.8 µM (inactive)	> 100 µM (inactive)		> 100 µM (inactive)	> 100 µM (inactive)	41.9 µM (inactive)	45.8 µM (inactive)	> 100 µM (inactive)	> 100 µM (inactive)	> 100 µM (inactive)	> 100 µM (inactive)	> 100	> 100 µM (inactive)	18.2 µM (inactive)	> 100 µM (inactive)	> 100 µM (inactive)	> 100 µM (inactive)	> 100 µM (inactive)	> 100 µM (inactive)	> 100 µM (inactive)
Cc1cc(NS(=O)(=O)c2ccc(Nc3c4ccccc4nc4ccc(C(=O)Nc5ccc(S(=O)(=O)N=C(N)N)cc5)cc34)cc2)no1	> 100 µM (inactive)	> 100 µM (inactive)	> 100 µM (inactive)	> 100 µM (inactive)	> 100 µM (inactive)	> 100 µM (inactive)	> 100 µM (inactive)	> 100 µM (inactive)	> 100 µM (inactive)	> 100 µM (inactive)	> 100 µM (inactive)	> 100	> 100 µM (inactive)	> 100 µM (inactive)	> 100 µM (inactive)	> 100 µM (inactive)	> 100 µM (inactive)	> 100 µM (inactive)	> 100 µM (inactive)	> 100 µM (inactive)
